# Measured values reported in EP0637237B1, “CALCIUM RECEPTOR-ACTIVE MOLECULES” (BRIGHAM AND WOMEN'S HOSPITAL, INC., priority 1993, dated 1994).
# Where two headings read alike, the source gives them in different places.
# Columns and labels:
# [1] = Net positive charge of the molecule; format: physicochemical; conditions: Table 1; effective charge at physiological pH
# [2] = target: T1, parathyroid cell Ca^2+ receptor (Bos taurus, UniProt P35384); format: cell-based, bovine; conditions: for effect on [Ca2+]i: tested at concentrations of 100 to 300 µM
# T1 sequence (P35384 20-1085): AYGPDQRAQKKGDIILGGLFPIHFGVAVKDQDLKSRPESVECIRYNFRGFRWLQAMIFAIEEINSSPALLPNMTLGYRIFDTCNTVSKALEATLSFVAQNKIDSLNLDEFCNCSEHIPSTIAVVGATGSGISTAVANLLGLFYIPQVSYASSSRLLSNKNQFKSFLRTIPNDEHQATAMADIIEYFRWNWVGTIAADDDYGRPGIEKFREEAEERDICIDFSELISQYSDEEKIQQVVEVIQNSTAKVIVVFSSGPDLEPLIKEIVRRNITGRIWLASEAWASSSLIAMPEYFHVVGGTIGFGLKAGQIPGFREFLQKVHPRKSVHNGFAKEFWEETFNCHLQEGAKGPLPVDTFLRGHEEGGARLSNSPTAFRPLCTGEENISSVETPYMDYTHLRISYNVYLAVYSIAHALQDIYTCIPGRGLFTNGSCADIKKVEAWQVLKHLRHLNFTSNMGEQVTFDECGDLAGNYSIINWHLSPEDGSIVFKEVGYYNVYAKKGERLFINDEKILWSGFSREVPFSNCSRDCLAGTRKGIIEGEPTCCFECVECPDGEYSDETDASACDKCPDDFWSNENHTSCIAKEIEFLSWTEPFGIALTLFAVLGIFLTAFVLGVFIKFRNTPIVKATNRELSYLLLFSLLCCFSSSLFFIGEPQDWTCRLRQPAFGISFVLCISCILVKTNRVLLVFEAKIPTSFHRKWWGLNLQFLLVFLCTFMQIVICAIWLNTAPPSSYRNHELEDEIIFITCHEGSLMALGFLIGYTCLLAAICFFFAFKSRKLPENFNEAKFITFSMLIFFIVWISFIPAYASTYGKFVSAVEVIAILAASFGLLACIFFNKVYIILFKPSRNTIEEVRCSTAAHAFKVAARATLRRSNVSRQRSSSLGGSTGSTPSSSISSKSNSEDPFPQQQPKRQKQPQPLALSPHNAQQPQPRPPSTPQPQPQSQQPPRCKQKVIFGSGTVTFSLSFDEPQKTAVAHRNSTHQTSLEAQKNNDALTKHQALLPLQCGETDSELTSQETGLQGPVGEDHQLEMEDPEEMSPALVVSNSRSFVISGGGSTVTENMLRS
# Ca^2+ receptor = target: T2, Ca^2+ receptor (Homo sapiens, UniProt P41180); test: Cl- current in Xenopus oocytes injected with human parathyroid poly(A)+ mRNA; format: cell-based; conditions: hexacyclen 135 µM, neomycin 100 µM, NPS 382 5 mM
# T2 construct: Oocytes were injected with poly(A)^+-enriched mRNA from human parathyroid tissue (hyperplastic glands from a case of secondary HPT); expressed in transfected cells; host or cells: Xenopus laevis oocytes injected with poly(A)+ mRNA from hyperplastic human parathyroid glands
# T2 sequence (P41180 20-1078): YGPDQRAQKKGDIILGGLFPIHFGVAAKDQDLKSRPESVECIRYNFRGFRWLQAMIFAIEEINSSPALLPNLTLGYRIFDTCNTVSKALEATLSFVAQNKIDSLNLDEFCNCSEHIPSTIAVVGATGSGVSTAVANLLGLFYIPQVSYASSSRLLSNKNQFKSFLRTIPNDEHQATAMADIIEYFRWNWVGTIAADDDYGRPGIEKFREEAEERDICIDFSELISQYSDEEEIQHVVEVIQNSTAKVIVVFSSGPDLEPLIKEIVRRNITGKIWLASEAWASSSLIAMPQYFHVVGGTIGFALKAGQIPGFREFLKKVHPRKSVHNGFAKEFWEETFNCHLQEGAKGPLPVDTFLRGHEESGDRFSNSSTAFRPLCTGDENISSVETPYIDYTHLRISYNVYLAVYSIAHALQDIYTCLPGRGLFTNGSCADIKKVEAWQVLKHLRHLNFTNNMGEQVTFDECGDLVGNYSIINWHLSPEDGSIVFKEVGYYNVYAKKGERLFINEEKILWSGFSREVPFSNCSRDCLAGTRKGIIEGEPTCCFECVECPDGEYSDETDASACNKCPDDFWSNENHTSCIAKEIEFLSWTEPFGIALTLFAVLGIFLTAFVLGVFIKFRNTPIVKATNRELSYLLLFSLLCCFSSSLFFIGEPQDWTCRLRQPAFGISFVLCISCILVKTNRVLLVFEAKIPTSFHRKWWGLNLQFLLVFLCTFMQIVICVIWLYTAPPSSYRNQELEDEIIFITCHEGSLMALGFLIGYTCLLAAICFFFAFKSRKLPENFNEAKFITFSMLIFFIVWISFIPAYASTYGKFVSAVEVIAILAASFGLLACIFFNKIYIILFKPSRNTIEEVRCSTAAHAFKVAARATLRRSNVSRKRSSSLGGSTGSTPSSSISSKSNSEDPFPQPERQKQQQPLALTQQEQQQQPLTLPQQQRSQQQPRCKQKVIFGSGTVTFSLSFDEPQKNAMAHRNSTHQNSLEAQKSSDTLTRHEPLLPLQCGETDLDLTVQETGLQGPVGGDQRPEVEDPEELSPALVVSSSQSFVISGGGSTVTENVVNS
# [3] = tested on: osteoclast Ca^2+ receptor; test: [Ca2+]i (indo-1) in single rat osteoclasts; format: cell-based; conditions: for increase in [Ca2+]i in osteoclasts: screening, small responses were detected
# [4] = target: T3, parathyroid cell Ca^2+ receptor (Homo sapiens, UniProt P41180); test: [Ca2+]i (fura-2) in human parathyroid cells; format: cell-based; conditions: human parathyroid cells (adenoma)
# T3 construct: Dissociated parathyroid cells were prepared from a parathyroid adenoma obtained by surgery from a patient with primary hyperparathyroidism; endogenous in cells; host or cells: primary human parathyroid cells from adenomatous or hyperplastic glands
# T3 sequence (P41180 20-1078): T2 sequence (P41180 20-1078)
# Procedure: Human parathyroid glands, obtained from patients undergoing surgical removal of parathyroid tissue for primary or uremic hyperparathyroidism (HPT), were treated similarly to bovine tissue. Glands were trimmed of excess fat and connective tissue and then minced with a fine scissors into approximate cubes of 2-3 mm. Dissociated parathyroid cells were prepared by collagenase digestion. Dissociated cells were then purified by centrifugation in Percoll buffer. The resultant parathyroid cell preparation was essentially devoid of red blood cells, adipocytes, and capillary tissue as assessed by phase contrast microscopy and Sudan black B staining. Dissociated and purified parathyroid cells were present as small clusters containing 5 to 20 cells.
# The cells were then pelleted, resuspended in the same buffer lacking the ester, and incubated a further 15 min at 37°C. The cells were subsequently washed twice with PCB containing 0.5 mM CaCl2 and 0.5% BSA and maintained at room temperature (about 20°C). Immediately before use, the cells were diluted five-fold with prewarmed 0.5 mM CaCl2-PCB to obtain a final BSA concentration of 0.1%. The concentration of cells in the cuvette used for fluorescence recording was 1-2 x 10^6/ml.
# The fluorescence of indicator-loaded cells was measured at 37°C in a spectrofluorimeter (Biomedical Instrumentation Group, University of Pennsylvania, Philadelphia, PA) equipped with a thermostated cuvette holder-and magnetic stirrer using excitation and emission wavelengths of 340 and 510 nm, respectively. […] Leakage of dye is dependent on temperature and most occurs within the first 2 min after warming the cells in the cuvette; dye leakage increases only very slowly thereafter. To correct the calibration for dye leakage, cells were placed in the cuvette and stirred at 37°C for 2-3 min. The cell suspension was then removed, the cells pelleted, and the supernatant returned to a clean cuvette. […] This estimate was subtracted from the apparent Fmin.
# [5] = Serum or whole blood ionized Ca2+ and PTH in rats in vivo; parameters: species or system Sprague-Dawley rats
# Source text: Male Sprague-Dawley rates (200 g) were maintained on a low calcium diet for one week prior to receiving test substance or vehicle as control. Blood was collected from the tail vein three hours after the intra-peritoneal administration of NPS 467. […]
# [6] = Table 1, mobilization of intracellular Ca2+ in parathyroid cells, read-out: EC50
# [7] = Table 6, rat osteoclasts, indo-1, inactive = no increase in cytosolic Ca2+ at 1-5 mM
# [8] = read-out: EC50 for the mobilization of intracellular Ca2+, […]
molecule,measurement,setting,value
gentamicin,Net (+) Charge,[1],+5
"C1CNCCNCCNCCNCCNCCN1 [hexacyclen, 1,4,7,10,13,16-hexaaza-cyclooctadecane]",fold increase in potency over pentaethylenehexamine (straight chain analog),[2],25 fold
same,EC50,[2]; [6],20 µM
same,EC50,[2]; […],20 µM
same,mobilization of intracellular Ca2+ in oocytes expressing the Ca2+ receptor,Ca^2+ receptor,caused the mobilization of intracellular Ca^2+
same,Net (+) Charge,[1],+6
NCCCCNCCCN [spermidine],"increase in [Ca2+]i, % of that evoked by a maximal concentration of extracellular Ca2+",[3]; concentration of 1 mM,about 10%
same,increase in [Ca2+]i in osteoclasts,[3],none of these caused any large increase in [Ca^2+]i
same,EC50,[2],2000 µM
same,Net (+) Charge,[1],+3
NCCCN1CCCN(CCCN)CCN(CCCN)CCCN(CCCN)CC1 [NPS 383],Net (+) Charge,[1],+8
"NCCCCCCCCCCCCN [1,12-diaminododecane (DADD), 1,12-diaminododecane]",EC50,[2]; read-out: EC50,3000 µM
same,Net (+) Charge,[1],+2
COc1ccc(CCN(C)CCCC(C#N)(c2ccc(OC)c(OC)c2)C(C)C)cc1OC (centres unmarked) [verapamil],increase in [Ca2+]i in osteoclasts,[3],none of these caused any large increase in [Ca^2+]i
same,increase in [Ca2+]i,[3]; verapamil 100 µM,no detectable increase in [Ca^2+]i
NCCNCCNCCNCCN [tetraethylenepentamine],Net (+) Charge,[1],+5
NC(=O)C[C@H](NC(=O)Cc1ccc(O)cc1O)C(=O)NCCCCCNCCCNCCCNC(=O)[C@@H](N)CCCN=C(N)N [argiotoxin 636],effect on [Ca2+]i,[2],without effect
CCC[C@@H]1C[C@@H](C(=O)N[C@@H]([C@H]2O[C@H](SC)[C@H](O)[C@@H](O)[C@H]2O)[C@@H](C)O)N(C)C1 [lincomycin],effect on cytosolic Ca2+ transients,[2]; tested at a concentration of 500 µM,without effect
NC[C@H]1O[C@H](O[C@H]2[C@H](O)[C@@H](O[C@H]3O[C@H](CO)[C@@H](O)[C@H](N)[C@H]3O)[C@H](N)C[C@@H]2N)[C@H](N)[C@@H](O)[C@@H]1O [bekanamycin],EC50,[2]; [6],200 µM
same,EC50,[2]; […],200 µM
same,Net (+) Charge,[1],+5
[H]/N=C(/N)N[C@H]1[C@H](O)[C@@H](O)[C@H](O[C@@H]2O[C@@H](C)[C@](O)(C=O)[C@H]2O[C@@H]2O[C@@H](CO)[C@H](O)[C@@H](O)[C@@H]2NC)[C@@H](N/C(N)=N\[H])[C@@H]1O [streptomycin],EC50,[2]; [6],600 µM
same,EC50,[2]; […],600 µM
same,Net (+) Charge,[1],+3
COc1cccc([C@@H](C)NCCCc2ccccc2Cl)c1 [NPS R-568],EC50,"[2]; Table 6, […], fura-2, inactive = no increase in cytosolic Ca2+ at 1-5 mM, read-out: EC50(µM) PARATHYROID",0.6 µM
same,EC50,[4],3 µM
NCCCNCCCCNCCCNCCCNCCCNC(=O)Cc1c[nH]c2ccccc12 [NPS 019],EC50,[3]; [7],> 300 µM
NC(=O)C[C@H](NC(=O)Cc1c[nH]c2cccc(O)c12)C(=O)NCCCCCNCCCNCCCNC(=O)[C@@H](N)CCCN=C(N)N [Argiotoxin 659],effect on [Ca2+]i,[2],evoked transient increases in [Ca^2+]i
same,Net (+) Charge,[1],+4
COc1cccc(C(C)NCCCc2ccccc2Cl)c1 (racemic) [NPS 568],EC50,[2]; [8],< 5 µM
"N^1,N^1,N^5,N^14,N^14-tetrakis-(3-aminopropyl)spermine [NPS 382]",mobilization of intracellular Ca2+ in oocytes expressing the Ca2+ receptor,Ca^2+ receptor,effective
same,Net (+) Charge,[1],+8
COc1cccc(C(C)NCCCc2ccccc2)c1 (racemic) [NPS 467],EC50,[2]; [8],< 5 µM
same,time course of the hypocalcemic effect,[5]; Fig. 40 (25 mg/kg),maximal within three hours and returned toward control levels after 24 hours
same,serum albumin or phosphate levels,[5]; any of the doses examined,no change in serum albumin or phosphate levels
same,serum or whole blood Ca2+,"[5]; low calcium diet, three hours after intra-peritoneal administration, Fig. 38",dose-dependent reduction in serum or whole blood Ca^2+
same,serum ionized calcium after oral administration,"[5]; oral, dose-response curve, Fig. 44",lowers serum ionized calcium in rats when administered orally
same,circulating levels of PTH,"[5]; preliminary studies, doses effective in lowering blood Ca2+, Fig. 39",dose-dependent reduction in circulating levels of PTH
NCCCNCCCCNCCCNCCCN(O)CCCNC(=O)Cc1c[nH]c2ccccc12 [NPS 017],EC50(µM) OSTEOCLAST,[3]; [7],inactive
NCCNCCNCCN [triethylenetetramine],Net (+) Charge,[1],+4
"NCCCN(CCCN)CCCN(CCCN)CCCCN(CCCN)CCCN(CCCN)CCCN [NPS 381, N^1,N^1,N^5,N^10,N^14,N^14-hexakis-(3-aminopropyl) spermine]",Net (+) Charge,[1],+10
